Data reported in EP4813403A1, “USE OF GLP-1R/GIPR DOUBLE-TARGET AGONIST IN PREPARING ANIMAL DRUG” (Hangzhou Zhongmeihuadong Pharmaceutical Co., Ltd., priority 2023, dated 2025).

Columns and labels:
human GIP Receptor = biological target: T1, human GIP Receptor (Homo sapiens, UniProt P48546); experiment: In vitro binding activity to human GIP receptor ([125I]GIP displacement, crude cell membranes); settings: ratio of the Ki value of the endogenous ligand to the Ki value of the test compound; larger ratio = stronger binding
T1 construct: expressed in transfected cells
T1 sequence (P48546 22-466): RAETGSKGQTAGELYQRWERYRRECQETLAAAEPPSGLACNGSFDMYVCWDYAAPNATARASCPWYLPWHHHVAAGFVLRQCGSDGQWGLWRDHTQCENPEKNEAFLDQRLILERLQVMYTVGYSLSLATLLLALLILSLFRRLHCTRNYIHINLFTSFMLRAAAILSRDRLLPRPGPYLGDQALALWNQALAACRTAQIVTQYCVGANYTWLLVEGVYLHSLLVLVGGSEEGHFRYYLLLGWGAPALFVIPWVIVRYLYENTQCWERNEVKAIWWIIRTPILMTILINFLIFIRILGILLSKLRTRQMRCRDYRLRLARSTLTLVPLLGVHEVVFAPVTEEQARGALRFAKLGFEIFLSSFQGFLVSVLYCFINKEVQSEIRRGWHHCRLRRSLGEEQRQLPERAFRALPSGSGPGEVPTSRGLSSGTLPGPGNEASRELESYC
Procedure: 89 µL of membrane dissolved in binding buffer (50 mM Hepes, pH 7.4, 5 mM MgCl2 , 5 mM EDTA, 0.005% TWEEN, 0.005% HSA) was transferred to a 96-well test plate (5 µg/well). The compound was serially diluted in DMSO, and then, 1 µL of the diluted compound or 100% DMSO was added to the test plate containing the membrane solution. 10 µL of [^125I] […] The test plate was left at room temperature for 90 minutes. The membrane complexes were harvested into a GF/B plate pre-coated with 0.5% PEI by using a Cell Harvester, and washed for 3 times with 500 µL of pre-cooled elution buffer (50 mM Hepes, pH 7.4, 500 mM NaCl) at 4°C. After drying at 37°C for 2 hours, 50 µL of scintillation fluid was added to each well. The plate was read with a MicroBeta2 scintillation counter after sealing and settling for at least 1 hour so as to determine the membrane bound radioligand level.
hGIP and the compound of the present invention were dissolved in DMSO and stored at -80°C. 98 µL of membrane dissolved in binding buffer (50 mM HEPES pH 7.4, 5 mM MgCl2, 1 mM CaCl2, 0.1% BSA, 0.005% Tween-20) was transferred to a 96-well test plate (15 µg/well). The compound was serially diluted in DMSO, and then, 2 µL of the diluted compounds or 100% DMSO was added to the test plate containing the membrane solution. […] The test plate was left at room temperature for 90 minutes. The membrane complexes were harvested into a GF/B plate pre-coated with 0.5% PEI by using a Cell Harvester, and washed for 3 times with 500 µL of pre-cooled elution buffer (50 mM Tris-HCl pH 7.4, 125 mM NaCl) at 4°C. After drying at 37°C for 2 hours, 50 µL of scintillation fluid was added to each well. The plate was read with a MicroBeta2 scintillation counter after sealing and settling for at least 1 hour so as to determine the membrane bound radioligand level.
The IC50 concentration was converted to Ki (Ki was the inhibition constant) using the Cheng-Prusoff equation. Table 1. Receptor Binding Affinity, Ki Ratio

[1] = Pharmacokinetics in cynomolgus monkeys; settings: cynomolgus monkey, in vivo, sc
Procedure: After subcutaneous or intravenous administration to cynomolgus monkeys, plasma was collected and the drug concentration in plasma was determined to illustrate the in vivo pharmacokinetic properties of the compound according to the present invention. […] 70.0 µL of thawed plasma sample was taken. 70 µL of acetonitrile (containing 1 ng/ml of the internal standard) was added to precipitate protein. […] The mixture was vortexed for 5 minutes. 10 µL of the mixture solution was sampled and injected into the LC-MS/MS to determine the drug concentration in plasma. […] Table 9 Average Pharmacokinetic Parameters after Single Subcutaneous Administration to Cynomolgus Monkeys

db/db mice = experiment: Multiple administration experiment on db/db mice; format: in vivo; settings: for AUC 4-25 day Glu / D28 FBG(Fasting Blood Glucose) / Liver Weight / Serum ALT / Serum TBIL / Serum TG: db/db mice, s.c. every 3 days for 4 weeks, Mean±SEM, 6 mice
Procedure: "Minimum effective dose" as disclosed in the present invention refers to the minimum administration dose at which the drug effect is produced.
"Efficacy dose" as disclosed in the present invention refers to the administration dose at which the drug effect is produced.
In this study, 7-8 week old male db/db mice were used. The db/db mice were placed in an individual ventilated cage (IVC) facility with a controlled temperature (20-26°C) and humidity (40-70%) and a controlled 12:12 h light-dark cycle. The mice received food and water ad libitum. Blood were sampled at the tail tip, and the base blood glucose was measured by a Roche blood glucose meter. The mice were randomly divided into groups according to the initial blood glucose and initial body weight (n=6/group), and each group had similar body weight and blood glucose.
The mice were subcutaneously administrated every 3 days for 4 weeks. Subcutaneous administration was conducted on days 1, 4, 7, 10, 13, 16, 19, 22 and 25. Random blood glucose was recorded every 3 days throughout the study. On day 28, the fasting blood glucose was measured. Then the blood was collected by orbital blood sampling. After the orbital blood sampling, the animals were sacrificed, and the liver was taken and weighed. After 1 to 2 hours, the collected blood was centrifuged at 3000 rpm for 10 min to separate the serum. Biochemical indicators such as triglyceride (TG), alanine aminotransferase (ALT), and total bilirubin (TBIL) were determined with a biochemical analyzer. The data results were statistically analyzed using GraphPad Prism8, and the statistical differences among the groups were analyzed following T-Test. Significant differences were identified at p<0.05.

Structure (SMILES)	GIPR Ki ratio (human GIP Receptor)	Tmax [1] [h]	half-life [1] [h]	AUC 4-25 day Glu (db/db mice; 3 nmol/kg) [mmol·days/L]	D28 FBG(Fasting Blood Glucose) (db/db mice; 3 nmol/kg) [mmol/L]	Liver Weight (db/db mice; 3 nmol/kg) [g]	Serum ALT (db/db mice; 3 nmol/kg) [U/L]	Serum TBIL (db/db mice; 3 nmol/kg) [µmol/L]	Serum TG (db/db mice; 3 nmol/kg) [mmol/L]	AUC 4-25 day Glu (db/db mice; 10 nmol/kg) [mmol·days/L]	D28 FBG(Fasting Blood Glucose) (db/db mice; 10 nmol/kg) [mmol/L]	Liver Weight (db/db mice; 10 nmol/kg) [g]	Serum ALT (db/db mice; 10 nmol/kg) [U/L]	Serum TBIL (db/db mice; 10 nmol/kg) [µmol/L]	Serum TG (db/db mice; 10 nmol/kg) [mmol/L]	AUC 4-25 day Glu (db/db mice; 30 nmol/kg) [mmol·days/L]	D28 FBG(Fasting Blood Glucose) (db/db mice; 30 nmol/kg) [mmol/L]	Liver Weight (db/db mice; 30 nmol/kg) [g]	Serum ALT (db/db mice; 30 nmol/kg) [U/L]	Serum TBIL (db/db mice; 30 nmol/kg) [µmol/L]	further results
CC[C@H](C)[C@H](NC(=O)C(C)(C)NC(=O)[C@H](Cc1ccc(O)cc1)NC(=O)[C@H](CC(=O)O)NC(=O)[C@H](CO)NC(=O)[C@@H](NC(=O)C(C)(Cc1ccccc1)NC(=O)[C@@H](NC(=O)CNC(=O)[C@H](CCC(=O)O)NC(=O)C(C)(C)NC(=O)[C@@H](N)Cc1ccc(O)cc1)[C@@H](C)O)[C@@H](C)O)C(=O)NC(C)(C)C(=O)N[C@@H](CC(C)C)C(=O)N[C@@H](CC(=O)O)C(=O)N[C@@H](CCCCN)C(=O)N[C@@H](CCC(N)=O)C(=O)N[C@@H](C)C(=O)N[C@@H](CCC(N)=O)C(=O)N[C@@H](C)C(=O)N[C@@H](CCC(=O)O)C(=O)N[C@@H](Cc1ccccc1)C(=O)N[C@H](C(=O)N[C@@H](CCCCNC(=O)COCCOCCNC(=O)COCCOCCNC(=O)CC[C@H](NC(=O)CCCCCCCCCCCCCCCCCCCCC(=O)O)C(=O)O)C(=O)N[C@@H](Cc1c[nH]c2ccccc12)C(=O)N[C@@H](CC(C)C)C(=O)N[C@@H](CC(C)C)C(=O)N[C@@H](CCCCN)C(=O)NCC(=O)NCC(=O)N1CCC[C@H]1C(=O)N[C@@H](CO)C(=O)N[C@@H](CO)C(=O)NCC(=O)N[C@@H](C)C(=O)N1CCC[C@H]1C(=O)N1CCC[C@H]1C(=O)N1CCC[C@H]1C(=O)N[C@@H](CO)C(=O)N[C@@H](CCCCN)C(N)=O)C(C)C (stereo partly shown) [Compound P014]	0.08	16 ± 6.93	52.7 ± 6.45	294 ± 40.43	10.22 ± 1.58	2.26 ± 0.18	111.24±13.23	0.58 ± 0.11	1.39 ± 0.07	214.4 ± 33.73	10.72 ± 1.75	2.1 ± 0.14	89.9±8.66	0.58 ± 0.15	1.29 ± 0.03	190.62 ± 26.47	13.38 ± 3.38	1.89 ± 0.31	106.47±14.3	0.36 ± 0.15	Efficacy Dose (db/db mice; db/db mice multiple administrations, dose with blood glucose AUC p<0.05 vs. Vehicle): 3 nmol/kg; Serum TG (db/db mice; 30 nmol/kg): 1.14 ± 0.18 mmol/L
CC[C@H](C)[C@H](NC(=O)C(C)(C)NC(=O)[C@H](Cc1ccc(O)cc1)NC(=O)[C@H](CC(=O)O)NC(=O)[C@H](CO)NC(=O)[C@@H](NC(=O)C(C)(Cc1ccccc1)NC(=O)[C@@H](NC(=O)CNC(=O)[C@H](CCC(=O)O)NC(=O)C(C)(C)NC(=O)[C@@H](N)Cc1ccc(O)cc1)[C@@H](C)O)[C@@H](C)O)C(=O)NC(C)(C)C(=O)N[C@@H](CC(C)C)C(=O)N[C@@H](CC(=O)O)C(=O)N[C@@H](CCCCN)C(=O)N[C@@H](CCC(N)=O)C(=O)N[C@@H](C)C(=O)N[C@@H](CCC(N)=O)C(=O)N[C@@H](C)C(=O)N[C@@H](CCC(=O)O)C(=O)N[C@@H](Cc1ccccc1)C(=O)N[C@H](C(=O)N[C@@H](CCCCN)C(=O)N[C@@H](Cc1c[nH]c2ccccc12)C(=O)N[C@@H](CC(C)C)C(=O)N[C@@H](CC(C)C)C(=O)N[C@@H](CCCCNC(=O)COCCOCCNC(=O)COCCOCCNC(=O)COCCOCCNC(=O)CC[C@H](NC(=O)CCCCCCCCCCCCCCCCCCCCC(=O)O)C(=O)O)C(=O)NCC(=O)NCC(=O)N1CCC[C@H]1C(=O)N[C@@H](CO)C(=O)N[C@@H](CO)C(=O)NCC(=O)N[C@@H](C)C(=O)N1CCC[C@H]1C(=O)N1CCC[C@H]1C(=O)N1CCC[C@H]1C(=O)N[C@@H](CO)C(=O)N[C@@H](CCCCN)C(N)=O)C(C)C (stereo partly shown) [Compound P020]	0.05	22.7 ± 10.1	67.4 ± 9.47	268.28 ± 24.64	9.6 ± 1.32	2.03 ± 0.09	214.56±43.83	1.54 ± 0.25	1.37 ± 0.12	290.78 ± 27.25	10.7 ± 1.62	2.09 ± 0.1	113.48±24.18	0.91 ± 0.05	1.07 ± 0.03	184.18 ± 22.44	8.22 ± 1.07	1.83 ± 0.16	112.47±16.69	0.95 ± 0.28	Serum TG (db/db mice; 30 nmol/kg): 1.2 ± 0.07 mmol/L
CC[C@H](C)[C@H](NC(=O)C(C)(C)NC(=O)[C@H](Cc1ccc(O)cc1)NC(=O)[C@H](CC(=O)O)NC(=O)[C@H](CO)NC(=O)[C@@H](NC(=O)C(C)(Cc1ccccc1)NC(=O)[C@@H](NC(=O)CNC(=O)[C@H](CCC(=O)O)NC(=O)C(C)(C)NC(=O)[C@@H](N)Cc1ccc(O)cc1)[C@@H](C)O)[C@@H](C)O)C(=O)NC(C)(C)C(=O)N[C@@H](CC(C)C)C(=O)N[C@@H](CC(=O)O)C(=O)N[C@@H](CCCCN)C(=O)N[C@@H](CCC(N)=O)C(=O)N[C@@H](C)C(=O)N[C@@H](CCC(N)=O)C(=O)N[C@@H](C)C(=O)N[C@@H](CCC(=O)O)C(=O)N[C@@H](Cc1ccccc1)C(=O)N[C@H](C(=O)N[C@@H](CCCCN)C(=O)N[C@@H](Cc1c[nH]c2ccccc12)C(=O)N[C@@H](CC(C)C)C(=O)N[C@@H](CC(C)C)C(=O)N[C@@H](CCCCNC(=O)COCCOCCNC(=O)COCCOCCNC(=O)CC[C@H](NC(=O)CCCCCCCCCCCCCCCCCCCCC(=O)O)C(=O)O)C(=O)NCC(=O)NCC(=O)N1CCC[C@H]1C(=O)N[C@@H](CO)C(=O)N[C@@H](CO)C(=O)NCC(=O)N[C@@H](C)C(=O)N1CCC[C@H]1C(=O)N1CCC[C@H]1C(=O)N1CCC[C@H]1C(=O)N[C@@H](CO)C(=O)N[C@@H](CCCCN)C(N)=O)C(C)C (stereo partly shown) [Compound P017]	0.04	48 ± 24	44.3 ± 4.8	303.78 ± 33.24	11.68 ± 1.7	2.14 ± 0.08	105.16±7.1	0.88 ± 0.26	1.58 ± 0.17	249.65 ± 47.65	11.95 ± 2.51	2.11 ± 0.09	141.65±12.72	1.59 ± 0.07	1.19 ± 0.05	294.96 ± 11.96	10.08 ± 0.79	2.35 ± 0.09	176.48±51.6	1.11 ± 0.1	Serum TG (db/db mice; 30 nmol/kg): 1.09 ± 0.06 mmol/L
